Experimental data taken from patent publication US20250388592A1 (REMYND N.V., priority 2022, published 2025).
pEC50: −log10 of the molar value.

tested on: Tau-P301S transgenic mice; assay: Hippocampal long-term potentiation (CA3-CA1 fEPSP) in human Tau transgenic mice model of Alzheimer disease; type: in vivo, mouse; settings: 0.4 mpk orally once daily for 7 days, 41-60 minute post-induction interval
Source text: The Tau-P301S line of mice was transgenic for the 383 aa isoform of human tau with the P301S mutation (Allen et al., 2002). In these mice, a clinical mutant of the human Tau (P301S) was expressed under control of the murine Thy1 promoter (neuron-specific expression) in C57Bl/6JxCBA/ca background. The homozygous hTauP301S-Tg model used consisted of the progeny from a cross between two homozygous hTauP301S-Tg parental mice in C57Bl/6JxCBA/ca background, bred in SPF breeding conditions.
Six mice (3,5 months of age) per group were treated orally once daily for 7 days with vehicle or 0.4, 2 or 10 mg/kg cpd B061, or twice daily for 7 days with vehicle or 25 mg/kg cpd B112, formulated in labrasol/capryol (70/30% W/V). A wild type vehicle group was included as well. The mice in study were sacrificed after a minimum of 7 days of acclimatization and 7 days of dosing. LTP measurements occurred between 90 and 120 minutes after excision of the brain.
Mice were anaesthetized with isoflurane and then decapitated. Heads were immediately immersed in ice-cold freshly prepared artificial CSF (cerebrospinal fluid) (aCSF) for at least 2 min before brain extraction. Acute slices (400 μm thick) were prepared with a vibratome (VT 1000S; Leica Microsystems, Bannockburn, IL) in ice-cold gassed aCSF. Sections were incubated in aCSF at 34° C. for 20 min and then kept at room temperature for at least 1 h before recording. aCSF was composed of the following (in mM): 119 NaCl, 11 d-glucose, 1.3 MgCl2·6H2O, 1.3 NaH2PO4, 2.5 KCl, 2.5 CaCl2, 26 NaHCO3, gassed with O2/CO2 (95/5%) at least 20 min before use and throughout the experiment.
Recordings were performed in a submerged chamber continuously flowed with aCSF at 2 ml/min. Extracellular field excitatory postsynaptic potentials (fEPSPs) were recorded in the CA1 stratum radiatum using a glass micropipette filled with aCSF. fEPSPs were evoked by the electrical

With `O=C(Cc1ccc(Cl)cc1)N1CC2(CN(Cc3ccc(F)cc3)C2)C1` [Cpd B061, 2-(4-chlorophenyl)-1-(6-(4-fluorobenzyl)-2,6-diazaspiro[3.3]heptan-2-yl)ethanone] the “Average fEPSP slope (% of baseline)” value was 129.0 % of baseline.

same assay, conditions: 2 mpk orally once daily for 7 days, 41-60 minute post-induction interval

With `O=C(Cc1ccc(Cl)cc1)N1CC2(CN(Cc3ccc(F)cc3)C2)C1` [Cpd B061, 2-(4-chlorophenyl)-1-(6-(4-fluorobenzyl)-2,6-diazaspiro[3.3]heptan-2-yl)ethanone] the “Average fEPSP slope (% of baseline)” value was 152.2 % of baseline.

same assay, conditions: 10 mpk orally once daily for 7 days, 41-60 minute post-induction interval

With `O=C(Cc1ccc(Cl)cc1)N1CC2(CN(Cc3ccc(F)cc3)C2)C1` [Cpd B061, 2-(4-chlorophenyl)-1-(6-(4-fluorobenzyl)-2,6-diazaspiro[3.3]heptan-2-yl)ethanone] the “Average fEPSP slope (% of baseline)” value was 169.3 % of baseline.

same assay, conditions: 25 mpk orally twice daily for 7 days, 41-60 minute post-induction interval

For `O=C(CC1CCC(F)(F)CC1)N1CC2(CN(Cc3ncccc3C(F)(F)F)C2)C1` [Cpd B112], the “Average fEPSP slope (% of baseline)” value was 144.4 % of baseline.

tested on: M17_3TAU(P301L) cells; assay: TAU-induced cytotoxicity (LDH) in the neuroblastoma tauopathy model; type: cell-based; settings: Homo sapiens, 168 h, inhibition of TAU-induced toxicity, 7 days retinoic acid differentiation, LDH readout
Summary of the method: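 Stably transfected BE-M17 cells expressing human TAU-P301L, seeded in serum-free detection medium, then differentiated with 2.5 μM RA (added in equal volume) for 7 days at 37° C/5% CO2 to induce TAU aggregation. Cytotoxicity = supernatant LDH increase over total LDH; EC50 from dose-dependent inhibition curves.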

Point of comparison: `Cn1cc(Cl)c(CN2CC3(C2)CN(C(=O)OC2CCC(F)(F)CC2)C3)n1` [Cpd B145], pEC50 8.56. Against it:
- O=C(Cc1ccc(Cl)cc1)N1CC2(CN(Cc3ccc(Cl)cc3)C2)C1 [Cpd B004, 1-(6-(4-chlorobenzyl)-2,6-diazaspiro[3.3]heptan-2-yl)-2-(4-chlorophenyl)ethanone] — within 0.2 log units, 8.54
- O=C(NC1CCC(F)(F)CC1)N1CC2(CN(Cc3ncccc3F)C2)C1 [Cpd B441] — 1.96 log units lower, 6.60
- O=C(OCc1ccc(Cl)cc1)N1CC2(CN(Cc3ccc(F)cc3)C2)C1 [Cpd B130] — 0.68 log units lower, 7.88
- O=C(Cc1ccc(Cl)cc1)N1CC2(CN(Cc3ccc(F)cc3)C2)C1 [Cpd B061, 2-(4-chlorophenyl)-1-(6-(4-fluorobenzyl)-2,6-diazaspiro[3.3]heptan-2-yl)ethanone] — within 0.2 log units, 8.61
- Cn1ncc(CN2CC3(C2)CN(C(=O)OCC2CCC(F)(F)CC2)C3)c1Cl [Cpd B158] — 1.37 log units lower, 7.19
- O=C(CC1CCC(F)(F)CC1)N1CC2(CN(Cc3ncccc3C(F)(F)F)C2)C1 [Cpd B112] — 0.65 log units lower, 7.91
- Clc1ccc(Cc2nsc(NC3CC4(CC(NCc5cc(Cl)ccc5Cl)C4)C3)n2)cc1 (stereo not drawn) [Cpd B308, N-(3-(4-chlorobenzyl)-1,2,4-thiadiazol-5-yl)-N′-(2,5-dichlorobenzyl) spiro[3.3]heptane-2,6-diamine] — within 0.2 log units, 8.42
- Cc1cccnc1CN1CC2(C1)CN(C(=O)c1cc3ccccc3s1)C2 [Cpd B427] — 2.49 log units lower, 6.07
- O=C(OCC1CCC(F)(F)CC1)N1CC2(CN(Cc3ccccc3C(F)(F)F)C2)C1 [Cpd B165] — within 0.2 log units, 8.60
- O=C(Cc1ccc(OC(F)(F)F)cc1)N1CC2(CN(Cc3ccc(F)cc3)C2)C1 [Cpd B090] — 0.52 log units lower, 8.04
- Cc1cccnc1CN1CC2(C1)CN(C(=O)NC1CCCCC1)C2 [Cpd B178] — 1.67 log units lower, 6.89
- COc1cccc(CN2CC3(C2)CN(C(=O)Oc2ccc(F)cc2)C3)c1 [Cpd B140, 4-fluorophenyl 6-(3-methoxybenzyl)-2,6-diazaspiro[3.3]heptane-2-carboxylate] — 0.26 log units higher, 8.82
- O=C(OCC1CCC(F)(F)CC1)N1CC2(CN(Cc3ccc(F)cc3C(F)(F)F)C2)C1 [Cpd B166] — 0.57 log units higher, 9.13
- Cc1nc(CN2CC3(C2)CN(C(=O)OCC24CC(F)(C2)C4)C3)cs1 [Cpd B136] — 2.39 log units lower, 6.17
- Cc1ccccc1CC(=O)N1CC2(CN(Cc3ncccc3C)C2)C1 [Cpd B430] — 2.40 log units lower, 6.16
- Cc1cccnc1CN1CC2(C1)CN(C(=O)NCC1CCCCC1)C2 [Cpd B177] — 0.29 log units lower, 8.27
- CCCN1CC2(C1)CN(C(=O)Cc1ccc(Cl)cc1)C2 [Cpd B042, 2-(4-chlorophenyl)-1-(6-propyl-2,6-diazaspiro[3.3]heptan-2-yl)ethanone] — 1.08 log units lower, 7.48
- Fc1cccc(CNC2CC3(C2)CC(Nc2nc(Cc4ccc(Cl)cc4)ns2)C3)c1 (stereo not drawn) [Cpd B323, N-(3-(4-chlorobenzyl)-1,2,4-thiadiazol-5-yl)-N′-(3-fluorobenzyl)spiro[3.3]heptane-2,6-diamine] — within 0.2 log units, 8.70
- Cc1cccnc1CN1CC2(C1)CN(C(=O)OC1CCCC1)C2 [Cpd B138] — 2.51 log units lower, 6.05
- O=C(OC1CCC(F)(F)CC1)N1CC2(CN(Cc3ccccc3OC(F)F)C2)C1 [Cpd B149] — 0.44 log units lower, 8.12
- Cc1cccnc1CN1CC2(C1)CN(C(=O)Cc1cccc(C(F)(F)F)c1)C2 [Cpd B079] — 0.69 log units lower, 7.87
- O=C(Cc1ccc(Cl)cc1)N1CC2(CN(Cc3ccccc3OC(F)(F)F)C2)C1 [Cpd B034, 2-(4-chlorophenyl)-1-(6-(2-(trifluoromethoxy)benzyl)-2,6-diazaspiro[3.3]heptan-2-yl)ethanone] — 0.34 log units lower, 8.22
- Cc1cccnc1CN1CC2(C1)CN(C(=O)Cc1ccc(F)c(C(F)(F)F)c1)C2 [Cpd B077] — within 0.2 log units, 8.43
- O=C(CC1CCC(F)(F)CC1)N1CC2(CN(Cc3ccc(F)cc3F)C2)C1 [Cpd B105] — within 0.2 log units, 8.59
- O=C(Cc1ccc(Cl)cc1)N1CC2(CN(Cc3ccccc3)C2)C1 [Cpd B003, 1-(6-benzyl-2,6-diazaspiro[3.3]heptan-2-yl)-2-(4-chlorophenyl)ethanone] — 0.40 log units lower, 8.16
- O=C(OC1CCC(F)(F)CC1)N1CC2(CN(Cc3ccc(F)cc3)C2)C1 [Cpd B133] — within 0.2 log units, 8.54
- O=C(Cc1ccc(Cl)cc1)N1CC2(CN(Cc3ccc(C(F)(F)F)o3)C2)C1 [Cpd B040, 2-(4-Chloro-phenyl)-1-[6-(5-trifluoromethyl-furan-2-ylmethyl)-2,6-diaza-spiro[3.3]hept-2-yl]-ethanone] — 1.17 log units lower, 7.39
- COc1cccc(CN2CC3(CN(Cc4ccc(Cl)cc4)C3)C2)c1 [Cpd B225, 2-(4-chlorobenzyl)-6-(3-methoxybenzyl)-2,6-diazaspiro[3.3]heptane] — 0.28 log units lower, 8.28
- CC(C)(C(=O)c1ccccc1)N1CC2(CN(C(=O)Cc3ccc(Cl)cc3)C2)C1 [Cpd B050, 2-(6-(2-(4-chlorophenyl)acetyl)-2,6-diazaspiro[3.3]heptan-2-yl)-2-methyl-1-phenylpropan-1-one] — 1.42 log units lower, 7.14
- COc1ncccc1CN1CC2(C1)CN(C(=O)NCc1ccc(F)cc1)C2 [Cpd B431] — 2.25 log units lower, 6.31
- Fc1ccccc1CNC1CC2(C1)CC(Nc1nc(Cc3ccc(Cl)cc3)ns1)C2 (stereo not drawn) [Cpd B312, N-(3-(4-chlorobenzyl)-1,2,4-thiadiazol-5-yl)-N′-(2-fluorobenzyl) spiro[3.3]heptane-2,6-diamine] — within 0.2 log units, 8.66
